The assay concerns stomata (guard cells). In words: Measurement of the stomatal aperture in isolated epidermal tissue. It is filed as cell-based, Arabidopsis thaliana. To be noted: 20 μM ABA, 2.5 hours under illumination; AHA2-transgenic and wild-type plants. The procedure:
The stomatal aperture was measured according to a conventional method (27) with slight modifications. Epidermal tissue isolated from plants 3 to 4 weeks after planting overnight dark-adapted plants was incubated in basal buffer (5 mM MES-BTP, pH 6.5, 50 mM KCl, and 0.1 mM CaCl2). To inhibit light-induced stomatal opening using ABA, the epidermal tissue was incubated under blue light/red light (10 μmol m^−2s^−1 blue light (Stick-B-32; EYELA, Tokyo, Japan) superimposed on 50 μmol ^m−2s^−1 background red light (LED-R; EYELA)) for 2.5 hours at 24° C. in the presence or absence or 20 μM ABA. The stomatal aperture in the abaxial epidermis was measured using a microscope. Stomatal aperture was represented as the average and standard error (SEM) for 25 stomata. Results were confirmed by blind reassessment by another researcher.

Each structure is given as a SMILES string.

As for `CC1=CC(=O)CC(C)(C)[C@@]1(O)/C=C/C(C)=C\C(=O)O` [ABA, abscisic acid], the “effect of ABA on light-induced stomatal opening” value was “inhibited”.
